Measurements reported in ChEMBL document CHEMBL6109096, “Synthesis, anti-allergic rhinitis evaluation and mechanism investigation of novel 1,2,4-triazole-enamides as CB1 R antagonist” (Eur J Med Chem, 2025).
Activity calls are given as the source filed them. No cut-off for these calls is given here.

Experiments:
RAW264.7 [1] = test: Cytotoxicity against mouse RAW264.7 cells assessed as reduction in cell viability at 10 uM incubated for 24 hrs by CCK-8 assay; assay type: toxicity, cell-based; conditions: raw264.7, 24 h
Mus musculus [2] = test: Anti-inflammatory activity in ovalbumin-induced allergic rhinitis male Balb/c mouse assessed as reduction in number of mast cells on nasal lavage fluid at 5 mg/kg, po administered via gavage for 7 days by giemsa staining based analysis; assay type: functional, organism-based; conditions: time 7.0 day
RAW264.7 [3] = test: Downregulation of P-P65 protein expression in LPS-induced mouse RAW264.7 cells by Western blotting analysis; assay type: functional, cell-based
Mus musculus [4] = test: Anti-inflammatory activity in ovalbumin-induced allergic rhinitis male Balb/c mouse model assessed as reduction in serum histamine expression at 5 mg/kg, po administered via gavage for 7 days by ELISA; assay type: functional, organism-based; conditions: time 7.0 day
RAW264.7 [5] = test: Downregulation of CB1 R expression in LPS-induced mouse RAW264.7 cells by immunofluorescence staining based analysis; assay type: functional, cell-based
RAW264.7 [6] = test: Downregulation of p-P38 intranuclear expression in mouse RAW264.7 cells by immunofluorescence staining based analysis; assay type: functional, cell-based
RAW264.7 [7] = test: Downregulation of p-P38 expression in mouse RAW264.7 cells by immunofluorescence staining based analysis; assay type: functional, cell-based
Mus musculus [8] = test: Anti-inflammatory activity in ovalbumin-induced allergic rhinitis male Balb/c mouse assessed as reduction in inflammation of nasal mucosal tissue at 5 mg/kg, po administered via gavage for 7 days by H and E staining based analysis; assay type: functional, organism-based; conditions: time 7.0 day
Mus musculus [9] = test: Anti-inflammatory activity in ovalbumin-induced allergic rhinitis male Balb/c mouse model assessed as reduction in sneezing at 5 mg/kg, po administered via gavage for 7 days; assay type: functional, organism-based; conditions: time 7.0 day
Mus musculus [10] = test: Anti-inflammatory activity in ovalbumin-induced allergic rhinitis male Balb/c mouse assessed as reduction in number of eosinophils on nasal lavage fluid at 5 mg/kg, po administered via gavage for 7 days by giemsa staining based analysis; assay type: functional, organism-based; conditions: time 7.0 day
Mus musculus [11] = test: Anti-inflammatory activity in ovalbumin-induced allergic rhinitis male Balb/c mouse assessed as reduction in number of cells on nasal lavage fluid at 5 mg/kg, po administered via gavage for 7 days by giemsa staining based analysis; assay type: functional, organism-based; conditions: time 7.0 day
Mus musculus [12] = test: Anti-inflammatory activity in ovalbumin-induced allergic rhinitis male Balb/c mouse model assessed as decrease in p-p38 intranuclear expression in nasal mucosal at 5 mg/kg, po administered via gavage for 7 days by immunofluorescence staining based analysis; assay type: functional, organism-based; conditions: time 7.0 day
Mus musculus [13] = test: Anti-inflammatory activity in ovalbumin-induced allergic rhinitis male Balb/c mouse assessed as reduction in number of goblet cells in nasal mucosal tissues at 5 mg/kg, po administered via gavage for 7 days by PAS staining based analysis; assay type: functional, organism-based; conditions: time 7.0 day
Mus musculus [14] = test: Anti-inflammatory activity in ovalbumin-induced allergic rhinitis male Balb/c mouse model assessed as reduction in IL-4 expression in nasal lavage fluid at 5 mg/kg, po administered via gavage for 7 days by ELISA; assay type: functional, organism-based; conditions: time 7.0 day
RAW264.7 [15] = test: Downregulation of P-IKBalpha protein expression in LPS-induced mouse RAW264.7 cells by Western blotting analysis; assay type: functional, cell-based
Mus musculus [16] = test: Anti-inflammatory activity in ovalbumin-induced allergic rhinitis male Balb/c mouse model assessed as reduction in nose scratching at 5 mg/kg, po administered via gavage for 7 days; assay type: functional, organism-based; conditions: time 7.0 day
RAW264.7 [17] = test: Downregulation of p-P38 protein expression in LPS-induced mouse RAW264.7 cells by Western blotting analysis; assay type: functional, cell-based
RAW264.7 [18] = test: Downregulation of p-JNK protein expression in LPS-induced mouse RAW264.7 cells by Western blotting analysis; assay type: functional, cell-based
Mus musculus [19] = test: Anti-inflammatory activity in ovalbumin-induced allergic rhinitis male Balb/c mouse model assessed as reduction in IgE expression at 5 mg/kg, po administered via gavage for 7 days (reference value: 0.268 +/- 0.045); assay type: functional; conditions: time 7 day
RAW264.7 [20] = test: Downregulation of p-ERK protein expression in LPS-induced mouse RAW264.7 cells by Western blotting analysis; assay type: functional, cell-based

CN(/C=C\c1ccccc1)C(=O)c1nc(-c2ccc(Cl)cc2)n(-c2ccccc2)n1
Activity (RAW264.7 [1]): Non-toxic

CN(/C=C\c1ccccc1)C(=O)c1nc(-c2ccc(F)cc2)n(-c2ccccc2)n1
Activity (RAW264.7 [1]): Non-toxic

CCc1nc(C(=O)N(C)/C=C\c2ccccc2)nn1-c1ccccc1
Activity (RAW264.7 [1]): Non-toxic

Cc1ccc(-c2nc(C(=O)N(C)/C=C\c3ccccc3)nn2-c2ccccc2)cc1
Activity (RAW264.7 [1]): Non-toxic

Cc1cc(C)c(-c2nc(C(=O)N(C)/C=C\c3ccccc3)nn2-c2ccccc2)c(C)c1
Activity (RAW264.7 [1]): Non-toxic

C[C@@H]1C[C@H]2[C@@H]3CCC4=CC(=O)C=C[C@]4(C)[C@@]3(F)[C@@H](O)C[C@]2(C)[C@@]1(O)C(=O)CO [DEXAMETHASONE]
Activity (Mus musculus [2]): Active | Activity (RAW264.7 [3]): Active | Activity (Mus musculus [4]): Active | Activity (RAW264.7 [5]): Active | Activity (RAW264.7 [6]): Active | Activity (RAW264.7 [7]): Active | Activity (Mus musculus [8]): Active | Activity (Mus musculus [9]): Active | Activity (Mus musculus [10]): Active | Activity (Mus musculus [11]): Active | Activity (Mus musculus [12]): Active | Activity (Mus musculus [13]): Active | Activity (Mus musculus [14]): Active | Activity (RAW264.7 [15]): Active | Activity (Mus musculus [16]): Active | Activity (RAW264.7 [17]): Active | Activity (RAW264.7 [18]): Active | Activity (Mus musculus [19]): 0.126 | Activity (RAW264.7 [20]): Active
